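Step 1: Grow cells in 96-well plates. Step 2: Expose to compound for 48 hours at 5 concentrations. Step 3: Interpolate endpoints linearly; if unreached, use highest concentration. GI50 = concentration required for 50% inhibition of growth.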 Active and inactive are the calls of the source. No stated cut-off is given here; in the data, active = GI50 up to about 1.1 µM and inactive = higher.
Experiments:
Experiment in all cases: growth of human tumour cells (NCI), 48 h
[1] = system: OVCAR-3
[2] = system: MOLT-4
[3] = system: COLO 205
[4] = system: LOX IMVI
[5] = system: MDA-MB-231
[6] = system: HL-60
[7] = system: 786-0
[8] = system: SNB-19
[9] = system: HOP-92
[10] = system: OVCAR-4
[11] = system: SK-MEL-5
[12] = system: HOP-62
[13] = system: PC-3
[14] = system: K562
[15] = system: T47D
[16] = system: OVCAR-5
[17] = system: HCC 2998
[18] = system: CAKI-1
[19] = system: OVCAR-8
[20] = system: SF-295

Row | SMILES | GI50 [1] | GI50 [2] | GI50 [3] | GI50 [4] | GI50 [5] | GI50 [6] | GI50 [7] | GI50 [8] | GI50 [9] | GI50 [10] | GI50 [11] | GI50 [12] | GI50 [13] | GI50 [14] | GI50 [15] | GI50 [16] | GI50 [17] | GI50 [18] | GI50 [19] | GI50 [20]
1 | COc1ccc(C(=O)Cn2c(C(=O)/C=C/c3ccco3)nc3ccccc32)cc1 | 24.9 µM (inactive) | 15.8 µM (inactive) | 21.7 µM (inactive) | 25.8 µM (inactive) | 28.7 µM (inactive) | 22.1 µM (inactive) | 31 µM (inactive) | 39.2 µM (inactive) | 51.4 µM (inactive) | 37.1 µM (inactive) | 26.7 µM (inactive) | 46 µM (inactive) | 36.3 µM (inactive) | 22.2 µM (inactive) | 66.7 µM (inactive) | > 100 µM (inactive) | 16.6 µM (inactive) |  |  | 
2 | COC(=O)/N=[N+](\[O-])C(c1ccccc1)c1ccccc1 | 98.9 µM (inactive) | > 100 µM (inactive) | 76.2 µM (inactive) | 69 µM (inactive) | > 100 µM (inactive) | > 100 µM (inactive) | > 100 µM (inactive) | > 100 µM (inactive) |  | 34.8 µM (inactive) | 41.9 µM (inactive) |  | 60.4 µM (inactive) | 47.8 µM (inactive) | 40.2 µM (inactive) | > 100 µM (inactive) | > 100 µM (inactive) | 76.6 µM (inactive) | > 100 µM (inactive) | 
3 | Cn1nc(C(=O)N2CC(CCl)c3c2cc([N+](=O)[O-])c2ccccc32)cc1NC(=O)Nc1cc(C(=O)N2CC(CCl)c3c2cc([N+](=O)[O-])c2ccccc32)nn1C (stereo unspecified) | > 100 µM (inactive) | > 100 µM (inactive) | > 100 µM (inactive) |  | > 100 µM (inactive) |  | 79.6 µM (inactive) | 77.4 µM (inactive) | > 100 µM (inactive) | > 100 µM (inactive) | > 100 µM (inactive) | 32.1 µM (inactive) | > 100 µM (inactive) | > 100 µM (inactive) | > 100 µM (inactive) | > 100 µM (inactive) | > 100 µM (inactive) | > 100 µM (inactive) |  | 94.8 µM (inactive)
4 | CCOC(=O)C1C=C1C(C)(C)O (stereo unspecified) | > 10 µM (inactive) | > 10 µM (inactive) |  | > 10 µM (inactive) |  | > 10 µM (inactive) | > 10 µM (inactive) | > 10 µM (inactive) | > 10 µM (inactive) |  | > 10 µM (inactive) | > 10 µM (inactive) | > 10 µM (inactive) | > 10 µM (inactive) | 7.24 µM (inactive) | > 10 µM (inactive) |  |  | > 10 µM (inactive) | > 10 µM (inactive)
5 | C/C=C1\C(=O)O[C@H]2C/C(C)=C/CC/C(C)=C/CC[C@@]3(C)O[C@@H]3C[C@@H]12 | > 100 µM (inactive) | 95.1 µM (inactive) | > 100 µM (inactive) |  | > 100 µM (inactive) | 52 µM (inactive) | > 100 µM (inactive) | 36.8 µM (inactive) |  |  | > 100 µM (inactive) | > 100 µM (inactive) | > 100 µM (inactive) | > 100 µM (inactive) | > 100 µM (inactive) | > 100 µM (inactive) | > 100 µM (inactive) | > 100 µM (inactive) | > 100 µM (inactive) | > 100 µM (inactive)
6 | COc1cc(OC)cc(-c2nc3cc(F)ccc3s2)c1 | 26.2 µM (inactive) |  | 34.1 µM (inactive) | 53.8 µM (inactive) | 13.6 µM (inactive) |  | 9.08 µM (inactive) | 16.9 µM (inactive) |  | > 100 µM (inactive) | > 100 µM (inactive) |  | 39.5 µM (inactive) |  | 10.5 µM (inactive) | 24.9 µM (inactive) | < 0.01 µM (active) | 40.2 µM (inactive) | 30.8 µM (inactive) | 10.6 µM (inactive)
7 | CC(=O)Nc1ccc(-c2nc3ccccc3s2)cc1O | 94.8 µM (inactive) | 14.6 µM (inactive) | 33.8 µM (inactive) | 41.3 µM (inactive) | 78.2 µM (inactive) |  | 41.1 µM (inactive) | > 100 µM (inactive) | 65.9 µM (inactive) | 92.3 µM (inactive) | 20.4 µM (inactive) | 32.3 µM (inactive) | 51.2 µM (inactive) | 76.2 µM (inactive) | 36.1 µM (inactive) | 23 µM (inactive) | 30.6 µM (inactive) | 27 µM (inactive) | 19.8 µM (inactive) | 52.6 µM (inactive)
8 | CN1C/C(=C\c2cccs2)C(=O)/C(=C/c2cccs2)C1 | 29.3 µM (inactive) | 6.59 µM (inactive) | 24.4 µM (inactive) | 16.3 µM (inactive) | 18.3 µM (inactive) |  | 17.7 µM (inactive) | 30.5 µM (inactive) | 2.51 µM (inactive) | 18.7 µM (inactive) | 38.5 µM (inactive) | 33 µM (inactive) | 19.2 µM (inactive) | 25.1 µM (inactive) | 20.6 µM (inactive) | 20.6 µM (inactive) | 19.5 µM (inactive) | 31.1 µM (inactive) | 20 µM (inactive) | 53.8 µM (inactive)
